From patent EP1961762A1, “Inhibitors of protein phosphatase 1/GADD34, preparation and uses thereof” (Institut Gustave Roussy, priority 2007, dated 2008)
Peptide text beside a SMILES is read from it. * marks the point of attachment. Cbz = O=C(OCc1ccccc1)*; CH2F = FC*

How the values were obtained:
[1] = system: CT26 tumour cells; test: Anti-tumour vaccination with dying treated CT26 tumour cells, challenge with live tumour cells; assay type: in vivo, BALB/c mice; details: for immunogenic cell death: PP1/GADD34 inhibitor alone
[2] = system: CRT; test: Fluorescence detection of cell surface CRT on CT26 cells; assay type: cell-based, murine
Method: CT26 cells were cultured at 37°C under 5% CO2 in RPMI 1640 medium supplemented with 10% FCS, penicillin, streptomycin, 1 mM pyruvate and 10 mM HEPES in the presence of doxorubicin (DX; 24 h, 25 µM), mitoxantrone (Mitox; 24h, 1 µM, Sigma), idarubicin (24h, 1 µM, Aventis, France), mitomycin C (30 µM, 48 h; Sanofi-Synthelabo, France), and/or zVAD-fmk (50 µM, 24 h; Bachem), tunicamycin (24h, 65 µM), thapsigargin (24h, 30µM), brefeldin A (24h, 50 µM, Sigma), etoposide (48h, 25µM, Tava classics), MG132 (48h, 10 µM), ALLN (48h, […]), betulinic acid (24h, 10 µM), Hoechst 33343 (24h, 0,2µM), camptothecine (24h, 15 µM), lactacystin (48h, 60 µM), BAY 11-8072 (24h, 30µM), staurosporine (24h, 1.5 µM), bafilomycin A1 (48h, 300 nM), arsenic trioxide (24h, 30µM), C2-ceramide (C2-C; 24h, 60 µM,), calyculin A (48h, 30nM), or tautomycin (48h, nM, Sigma) and/or salubrinal (48h, µM, Calbiochem).
CT26 cells (on a glass slide or in 12-well plates) were first washed with FACS buffer (1× PBS, 5% fetus bovine serum, and 0.1% sodium azide) and then incubated with rabbit anti-mouse CRT antibody (1:100, Stressgen) in FACS buffer at 4 °C for 30 min. Cells reacted with anti-rabbit IgG (H+L) Alexa fluor 488-conjugates (1:500) in FACS buffer at 4 °C for 30 min. After washing three times with FACS buffer, surface CRT was detected by cytofluorometric analysis on a FACS Vantage. In some experiments, cells were fixed with 4% paraformaldehyde, counterstained with Hoechst (2µM; Sigma), followed by fluorescence microscopic assessment with a Leica IRE2 microscope equipped with a DC300F camera.

[3] = system: human HCT116 colon cancer cell; test: Calreticulin exposure, immunofluorescence staining and cytofluorometric analysis; assay type: cell-based; details: 2 hours
[4] = system: murine CT26 colon cancer cells; test: as above; assay type: cell-based; details: 2 hours
Method: CT26 cells were cultured for 24 hours in the presence of the indicated agents for 24hrs, as described in Materials and Methods, and then were stained with Annexin V-FITC and the vital dye DAPI. • Fig. 1B: Identification of immunogenic cell death inducers. CT26 cells cultured as in Fig.1A were injected into the left flank, followed by injection of life tumour cells in the right flank 8 days later. The percentage of tumour free mice was determined 120 days later as in Fig.1C. • Fig. 1C: Incidence of tumours after inoculation of dying cells. Day 1 was considered the day of inoculation of dying tumour cells, 1 week before challenge with […]. • Fig. 1S. Dissociation of CRT exposure and phosphatidyl serine exposure. • Fig. 1SA, Fig. 1SB: Kinetics of CRT exposure. […] Representative pictograms are shown in Fig.1SA and quantitative data are reported in Fig.1SB. • Fig. 1SC, Fig. 1SD: Kinetics of PS exposure and cell death. […] Note that the nuclei of untreated cells were visualized with Hoechst 33342 (blue), while those of doxorubicin-treated cells emit a red fluorescence (Fig.2D). […] The surface exposure of CRT was determined by immunoflurorescence cytometry while gating on viable (propidium iodine-negative) cells (inserts) and was correlated with the immunogenicity of cell death (as determined in Fig. 1). […]

[5] = system: CT26 tumours; test: Intratumoural treatment of established CT26 tumours, nu/nu mice; details: single intratumoural injection
Method: (§1) All animals were maintained in specific pathogen-free conditions and all experiments followed the FELASA guidelines. […] Tumours were evaluated weekly, using a caliper. In a series of experiments, BALB/c (wild type or nu/nu) carrying palpable CT26 tumours (implanted 14 days before for wild type or 7 days before for nu/nu mice by injection of 10^6 tumour cells) received a single intratumoural injection of 100 µM PBS containing the same concentration of anti-cancer agents and PP1/GADD34 inhibitors as those used in vitro, as well as rCRT (15 µg).

[6] = system: CT26 tumours; test: Intratumoural treatment of established CT26 tumours, immunocompetent mice; details: for therapeutic effect of single agent: single intratumoural injection, 14-day-old tumours
Method: as §1

[7] = system: HeLa, A549, HCT116; test: CRT exposure on human tumour cell lines; assay type: cell-based
[8] = system: MCA205, B16F10, J558; test: CRT exposure on murine tumour cell lines; assay type: cell-based
[9] = system: CRT and/or ERp57; test: Immunofluorescence staining of unfixed human tumour cell lines; assay type: cell-based; details: variety of human tumour cell lines
[10] = dying CT26 cells treated with the agent injected into one flank, live tumour cells into the opposite flank 8 days later

COC[C@@H]([C@H](O)[C@H](O)C(=O)NCC[C@H](C)c1nc(/C=C/C[C@@H]2O[C@]3(C[C@@H](O)[C@@H]2C)O[C@H]([C@H](C[C@H](O)[C@H](C)[C@H](O)[C@H](C)/C=C(C)/C(C)=C/C=C/C(C)=C\C#N)OC)[C@H](OP(=O)(O)O)C3(C)C)co1)N(C)C [calyculin A]
immunogenic cell death [1]: not sufficient to induce immunogenic cell death
immunogenic potential of cells succumbing to etoposide ([1]; mouse, in vivo): greatly enhanced
CRT exposure ([2]; agent alone): efficiently induced
CRT exposure ([2]; in combination with etoposide): greatly enhanced

COC(=O)C[C@H](NC(=O)[C@H](C)NC(=O)[C@@H](NC(=O)OCc1ccccc1)C(C)C)C(=O)CF [Z-VAD-fmk] (Cbz-Val-Ala-Asp(OMe)-CH2F)
immunogenicity of doxorubicin-elicited cell death ([1]; Z-VAD-fmk combined with doxorubicin): reduces the immunogenicity

C/C=C(/C)C(=O)O[C@H]1C(C)=C2[C@H]([C@@H]1OC(=O)CCCCCCC)[C@@](C)(OC(C)=O)C[C@H](OC(=O)CCC)[C@@]1(O)[C@H]2OC(=O)[C@@]1(C)O [thapsigargin]
immunogenic apoptosis / immunogenic cell death (protection against tumour growth) [1, 10]: failed to induce immunogenic apoptosis

VKKKKIKREIKI-Ikaravafsekv [mutant control peptide]
exposure of calreticulin [3]: did not induce calreticulin exposure
exposure of calreticulin [4]: did not induce calreticulin exposure

CCOc1ccc(-c2nc3ccc(-c4nc5ccc(N6CCN(C)CC6)cc5[nH]4)cc3[nH]2)cc1 [Hoechst 33342]
immunogenic apoptosis / immunogenic cell death (protection against tumour growth) [1, 10]: failed to induce immunogenic apoptosis

CO[C@@]12[C@H](COC(N)=O)C3=C(C(=O)C(C)=C(N)C3=O)N1C[C@@H]1N[C@@H]12 [mitomycin C]
immunogenic apoptosis / immunogenic cell death (protection against tumour growth) ([1]; mouse, in vivo): failed to induce immunogenic apoptosis
therapeutic effect of single agent [5]: no major therapeutic effect
therapeutic effect of single agent [6]: no major therapeutic effect

CC[C@@]1(O)C(=O)OCc2c1cc1n(c2=O)Cc2cc3ccccc3nc2-1 [camptothecin]
immunogenic apoptosis / immunogenic cell death (protection against tumour growth) [1, 10]: failed to induce immunogenic apoptosis

C[C@H]1CCC/C=C/[C@@H]2C[C@H](O)C[C@H]2[C@H](O)/C=C/C(=O)O1 [brefeldin, brefeldin A]
immunogenic apoptosis / immunogenic cell death (protection against tumour growth) [1, 10]: failed to induce immunogenic apoptosis

O=C(/C=C/c1ccccc1)NC(NC(=S)Nc1cccc2cccnc12)C(Cl)(Cl)Cl (stereo not shown) [salubrinal]
immunogenic cell death [1]: not sufficient to induce immunogenic cell death
immunogenic potential of cells succumbing to etoposide ([1]; in combination with etoposide (mitomycin C not shown), abrogated by knocking down CRT): greatly enhanced
CRT exposure [7]: induced CRT exposure
therapeutic effect of single agent [5]: no major therapeutic effect
CRT exposure ([2]; agent alone): efficiently induced
CRT exposure ([2]; in combination with etoposide): greatly enhanced
tumour response ([6]; combined with etoposide or mitomycin C, intratumoural): stable disease or complete tumour regression
therapeutic effect of single agent [6]: no major therapeutic effect
CRT exposure [8]: induced CRT exposure

arsenic trioxide [arsenite]
immunogenic apoptosis / immunogenic cell death (protection against tumour growth) ([1]; mouse, in vivo): failed to induce immunogenic apoptosis

C/C1=C/C(=O)O[C@@H]2C[C@@H](CC[C@H](C)/C=C\C=C\CC1)O[C@@](O)([C@@H]1CSC(=O)N1)C2 [latrunculin A]
effect on CRT exposure induced by anthracyclins and PP1/GADD34 inhibitors ([2]; pre-incubation for 1 h with the inhibitor): abolished

COc1cc([C@@H]2c3cc4c(cc3[C@@H](O[C@@H]3O[C@@H]5CO[C@@H](C)O[C@H]5[C@H](O)[C@H]3O)[C@H]3COC(=O)[C@H]23)OCO4)cc(OC)c1O [etoposide]
immunogenic apoptosis / immunogenic cell death (protection against tumour growth) [1, 10]: failed to induce immunogenic apoptosis
immunogenicity of etoposide-treated cells ([1]; sham-coated cells): poorly immunogenic
therapeutic effect of single agent [5]: no major therapeutic effect
therapeutic effect of single agent [6]: no major therapeutic effect

C2-ceramide [C2 ceramide]
immunogenic apoptosis / immunogenic cell death (protection against tumour growth) [1, 10]: failed to induce immunogenic apoptosis

tunicamycin
immunogenic apoptosis / immunogenic cell death (protection against tumour growth) [1, 10]: failed to induce immunogenic apoptosis

COc1cccc2c1C(=O)c1c(O)c3c(c(O)c1C2=O)C[C@@](O)(C(C)=O)C[C@@H]3O[C@H]1C[C@H](N)[C@H](O)[C@H](C)O1 [daunorubicin]
exposure of CRT and/or ERp57 on the cell surface [9]: Very similar results

CC(=O)[C@]1(O)Cc2c(O)c3c(c(O)c2[C@@H](O[C@H]2C[C@H](N)[C@H](O)[C@H](C)O2)C1)C(=O)c1ccccc1C3=O [idarubicin]
immunogenic apoptosis / immunogenic cell death (protection against tumour growth) [1, 10]: elicited immunogenic cell death
exposure of CRT and/or ERp57 on the cell surface [9]: Very similar results
